Molecules are shown by their SMILES. Where a name gives a salt, the structure may show the parent alone.

In the assay the target is T1, recombinant human baculovirus-expressed GST-tagged FASN (Homo sapiens, UniProt P49327).
T1 construct: GST
T1 sequence (P49327 whole entry): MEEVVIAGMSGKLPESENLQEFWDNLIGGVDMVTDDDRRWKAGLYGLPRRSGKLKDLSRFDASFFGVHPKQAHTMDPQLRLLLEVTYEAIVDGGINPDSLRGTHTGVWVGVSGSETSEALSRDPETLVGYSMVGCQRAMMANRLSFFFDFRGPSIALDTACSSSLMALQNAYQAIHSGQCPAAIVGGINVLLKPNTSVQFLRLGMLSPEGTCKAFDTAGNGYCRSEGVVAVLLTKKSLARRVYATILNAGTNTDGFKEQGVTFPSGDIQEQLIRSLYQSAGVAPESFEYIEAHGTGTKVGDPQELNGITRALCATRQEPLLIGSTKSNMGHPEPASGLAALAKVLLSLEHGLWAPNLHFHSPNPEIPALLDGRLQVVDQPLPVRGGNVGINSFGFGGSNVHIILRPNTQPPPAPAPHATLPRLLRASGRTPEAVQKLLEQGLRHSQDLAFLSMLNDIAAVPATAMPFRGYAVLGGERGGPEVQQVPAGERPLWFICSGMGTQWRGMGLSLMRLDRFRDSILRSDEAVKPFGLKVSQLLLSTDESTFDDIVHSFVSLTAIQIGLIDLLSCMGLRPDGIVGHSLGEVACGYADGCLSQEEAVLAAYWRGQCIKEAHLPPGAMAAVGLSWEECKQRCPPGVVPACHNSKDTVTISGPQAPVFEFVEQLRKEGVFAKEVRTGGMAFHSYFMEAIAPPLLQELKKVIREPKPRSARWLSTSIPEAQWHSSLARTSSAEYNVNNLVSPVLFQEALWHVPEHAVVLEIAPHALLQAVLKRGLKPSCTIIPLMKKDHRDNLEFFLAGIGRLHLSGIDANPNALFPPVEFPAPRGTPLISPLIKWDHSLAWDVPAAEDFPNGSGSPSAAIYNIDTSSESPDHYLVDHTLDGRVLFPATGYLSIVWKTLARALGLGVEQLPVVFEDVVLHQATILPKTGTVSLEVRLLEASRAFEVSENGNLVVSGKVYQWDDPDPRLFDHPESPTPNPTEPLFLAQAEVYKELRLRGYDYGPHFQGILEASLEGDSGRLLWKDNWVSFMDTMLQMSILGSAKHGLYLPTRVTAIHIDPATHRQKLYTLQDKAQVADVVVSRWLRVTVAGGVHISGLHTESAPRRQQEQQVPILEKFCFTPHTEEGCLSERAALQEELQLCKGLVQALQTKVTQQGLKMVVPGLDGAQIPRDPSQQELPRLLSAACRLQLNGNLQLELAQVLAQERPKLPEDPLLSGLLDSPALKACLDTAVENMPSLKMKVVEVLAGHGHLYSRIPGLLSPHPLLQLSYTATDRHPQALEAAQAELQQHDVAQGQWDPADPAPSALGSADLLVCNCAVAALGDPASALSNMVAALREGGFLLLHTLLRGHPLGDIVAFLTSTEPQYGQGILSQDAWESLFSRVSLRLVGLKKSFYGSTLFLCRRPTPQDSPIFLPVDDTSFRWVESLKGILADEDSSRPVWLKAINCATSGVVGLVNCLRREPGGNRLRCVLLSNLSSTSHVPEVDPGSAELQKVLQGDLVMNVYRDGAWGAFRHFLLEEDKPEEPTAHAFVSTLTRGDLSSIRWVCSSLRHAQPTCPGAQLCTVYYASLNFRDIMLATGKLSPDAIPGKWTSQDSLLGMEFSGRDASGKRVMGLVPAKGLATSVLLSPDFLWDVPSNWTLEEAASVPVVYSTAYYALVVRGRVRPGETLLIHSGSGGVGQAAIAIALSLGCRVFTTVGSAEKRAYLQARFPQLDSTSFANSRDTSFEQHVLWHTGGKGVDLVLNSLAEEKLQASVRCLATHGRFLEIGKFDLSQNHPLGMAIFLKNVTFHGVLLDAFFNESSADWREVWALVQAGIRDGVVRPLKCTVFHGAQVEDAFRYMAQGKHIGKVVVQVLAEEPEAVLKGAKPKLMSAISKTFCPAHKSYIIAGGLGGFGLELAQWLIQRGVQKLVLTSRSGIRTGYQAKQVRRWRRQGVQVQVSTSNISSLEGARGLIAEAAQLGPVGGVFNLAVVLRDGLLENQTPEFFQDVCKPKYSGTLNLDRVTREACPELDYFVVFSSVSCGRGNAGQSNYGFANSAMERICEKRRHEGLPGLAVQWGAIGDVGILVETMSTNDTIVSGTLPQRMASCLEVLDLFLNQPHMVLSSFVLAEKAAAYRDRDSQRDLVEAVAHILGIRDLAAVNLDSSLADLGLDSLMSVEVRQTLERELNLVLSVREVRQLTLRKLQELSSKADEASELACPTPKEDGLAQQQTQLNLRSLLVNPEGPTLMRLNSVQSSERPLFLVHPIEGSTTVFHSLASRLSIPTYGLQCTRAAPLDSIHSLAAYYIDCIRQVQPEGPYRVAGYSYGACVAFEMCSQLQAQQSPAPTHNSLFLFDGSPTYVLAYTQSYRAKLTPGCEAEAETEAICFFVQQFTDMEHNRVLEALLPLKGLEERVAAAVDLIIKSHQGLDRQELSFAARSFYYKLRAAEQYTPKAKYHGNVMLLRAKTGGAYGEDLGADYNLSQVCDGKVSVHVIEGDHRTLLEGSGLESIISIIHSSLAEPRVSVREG
The assay can be described thus: biochemical. The note with it: 5 nM FASN, 150 μM NADPH, 10 μM acetyl-CoA, 25 μM malonyl-CoA, 90 minutes incubation; read-out: IC50 data for Compounds of Formula I, Activity.
`Cc1nccc2cc(-c3ccc4c(c3)CCC3(CCN(C(=O)[C@H]5CCCO5)CC3)O4)ccc12` [Example 1, [6-(1-Methyl-6-isoquinolyl)spiro[chromane-2,4′-piperidine]-1′-yl]-[(2R)-tetrahydrofuran-2-yl]methanone, HCl]: the IC50 was 1 to 99 nM.

As for `CCC(=O)N1CCC2(CCc3cc(-c4cnc5ccccc5c4C)ccc3O2)CC1` [Example 2, 1-[6-(4-Methyl-3-quinolyl)spiro[chromane-2,4′-piperidine]-1′-yl]propan-1-one, HCl], the IC50 fell in the range of 1 to 99 nM.

For the compound `Cc1c(-c2ccc3c(c2)CCC2(CCN(C(=O)C4CC4)CC2)O3)cnc2ccccc12` [Example 3, Cyclopropyl-[6-(4-methyl-3-quinolyl)spiro[chromane-2,4′-piperidine]-1′-yl]-methanone HCl], the concentration for half-maximal inhibition (IC50) was in the range of 1 to 99 nM.

With `Cc1c(-c2ccc3c(c2)CCC2(CCN(C(=O)[C@H]4CCCO4)CC2)O3)cnc2ccccc12` [Example 4, [6-(4-Methyl-3-quinolyl)spiro[chromane-2,4′-piperidine]-1′-yl]-[(2R)-tetrahydrofuran-2-yl]methanone, HCl], the IC50 was 1 to 99 nM.

On to `O=C([C@H]1CCCO1)N1CCC2(CCc3cc(-c4ccc5c(C6CC6)nccc5c4)ccc3O2)CC1` [Example 5, [6-(1-Cyclopropyl-6-isoquinolyl)spiro[chromane-2,4′-piperidine]-1′-yl]-[(2R)-tetrahydrofuran-2-yl]methanone], for which the IC50 fell in the range of 1 to 99 nM.

Regarding `CCC(=O)N1CCC2(CCc3cc(-c4ccc5cccnc5c4C)ccc3O2)CC1` [Example 6, 1-[6-(8-Methyl-7-quinolyl)spiro[chromane-2,4′-piperidine]-1′-yl]propan-1-one], the IC50 lay in the range of 1 to 99 nM.

Take `Cc1c(-c2ccc3c(c2)CCC2(CCN(C(=O)C4CC4)CC2)O3)ccc2cccnc12` [Example 7, Cyclopropyl-[6-(8-methyl-7-quinolyl)spiro[chromane-2,4′-piperidine]-1′-yl]methanone, HCl]: the IC50 fell in the range of 1 to 99 nM.

In the case of `Cc1c(-c2ccc3c(c2)CCC2(CCN(C(=O)[C@H]4CCCO4)CC2)O3)ccc2cccnc12` [Example 8, [6-(8-Methyl-7-quinolyl)spiro[chromane-2,4′-piperidine]-1′-yl]-[(2R)-tetrahydrofuran-2-yl]methanone, HCl], the half-inhibitory concentration (IC50) lay in the range of 1 to 99 nM.

Consider `CCC(=O)N1CCC2(CCc3cc(-c4ccc5cccnc5c4Cl)ccc3O2)CC1` [Example 9, 1-[6-(8-chloro-7-quinolyl)spiro[chromane-2,4′-piperidine]-1′-yl]propan-1-one], for which the half-inhibitory concentration (IC50) is 1 to 99 nM.

Turning to `O=C(C1CC1)N1CCC2(CCc3cc(-c4ccc5cccnc5c4Cl)ccc3O2)CC1` [Example 10, [6-(8-Chloro-7-quinolyl)spiro[chromane-2,4′-piperidine]-1′-yl]-cyclopropyl-methanone, HCl], the IC50 is 1 to 99 nM.

For the compound `O=C([C@H]1CCCO1)N1CCC2(CCc3cc(-c4ccc5cccnc5c4Cl)ccc3O2)CC1` [Example 11, [6-(8-Chloro-7-quinolyl)spiro[chromane-2,4′-piperidine]-1′-yl]-[(2R)-tetrahydrofuran-2-yl]methanone, HCl], the IC50 is 1 to 99 nM.

In the case of `CCC(=O)N1CCC2(CCc3cc(-c4cnc5c(C)cccc5c4)ccc3O2)CC1` [Example 12, 1-[6-(8-Methyl-3-quinolyl)spiro[chromane-2,4′-piperidine]-1′-yl]propan-1-one], the IC50 was in the range of 1 to 99 nM.

`Cc1cccc2cc(-c3ccc4c(c3)CCC3(CCN(C(=O)C5CC5)CC3)O4)cnc12` [Example 13, Cyclopropyl-[6-(8-methyl-3-quinolyl)spiro[chromane-2,4′-piperidine]-1′-yl]-methanone, HCl]: the IC50 was 100 to 999 nM.

With `Cc1cccc2cc(-c3ccc4c(c3)CCC3(CCN(C(=O)[C@H]5CCCO5)CC3)O4)cnc12` [Example 14, [6-(8-Methyl-3-quinolyl)spiro[chromane-2,4′-piperidine]-1′-yl]-[(2R)-tetrahydrofuran-2-yl]methanone, HCl], the half-maximal inhibitory concentration (IC50) fell in the range of 1 to 99 nM.

Source of the values: patent US12448392B2, “Spiropiperidine derivatives” (89BIO LTD, priority 2016, dated 2025).
